In assay [1] the target is T1, RAR-β (Homo sapiens, UniProt P10826).
T1 construct: expressed in transfected cells; host or cells: CV-1 (monkey kidney)
T1 sequence (P10826 1-448 isoform P10826-2): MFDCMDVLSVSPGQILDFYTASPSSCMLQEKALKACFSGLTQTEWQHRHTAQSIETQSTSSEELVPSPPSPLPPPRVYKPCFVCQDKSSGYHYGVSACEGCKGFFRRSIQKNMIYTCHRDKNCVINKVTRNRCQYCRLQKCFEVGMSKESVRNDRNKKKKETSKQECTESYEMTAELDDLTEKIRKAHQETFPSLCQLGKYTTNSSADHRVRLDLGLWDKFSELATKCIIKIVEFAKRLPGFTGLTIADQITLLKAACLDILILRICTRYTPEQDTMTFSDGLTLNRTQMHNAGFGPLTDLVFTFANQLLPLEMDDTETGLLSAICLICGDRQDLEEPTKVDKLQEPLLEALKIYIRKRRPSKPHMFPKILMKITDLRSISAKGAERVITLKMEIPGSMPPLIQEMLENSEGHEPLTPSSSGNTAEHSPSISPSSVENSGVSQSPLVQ
As to the kind of experiment: Cotransfection assay in CV-1 cells, RAR-beta. Format: cell-based.

In assay [2] the target is T2, RAR-γ (Homo sapiens, UniProt P13631).
T2 construct: expressed in transfected cells; host or cells: CV-1 (monkey kidney)
T2 sequence (P13631 1-454): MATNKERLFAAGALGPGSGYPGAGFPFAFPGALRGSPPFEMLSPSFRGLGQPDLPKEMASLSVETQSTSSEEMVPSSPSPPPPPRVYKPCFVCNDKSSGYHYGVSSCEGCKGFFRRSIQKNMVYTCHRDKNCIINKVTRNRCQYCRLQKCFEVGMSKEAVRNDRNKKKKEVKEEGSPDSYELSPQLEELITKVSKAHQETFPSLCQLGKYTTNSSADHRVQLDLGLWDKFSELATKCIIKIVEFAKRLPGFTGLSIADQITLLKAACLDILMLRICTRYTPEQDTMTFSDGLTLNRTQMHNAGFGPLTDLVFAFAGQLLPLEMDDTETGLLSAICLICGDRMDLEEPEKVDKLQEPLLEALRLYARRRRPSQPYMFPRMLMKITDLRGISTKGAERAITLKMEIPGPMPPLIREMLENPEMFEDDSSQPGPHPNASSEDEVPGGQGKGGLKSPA
As to the kind of experiment: Cotransfection assay in CV-1 cells, RAR-gamma. Format: cell-based.

For assay [3], the target named is T3, RXR-α (Homo sapiens, UniProt P19793).
T3 construct: expressed in transfected cells; host or cells: CV-1 (monkey kidney)
T3 sequence (P19793 1-462): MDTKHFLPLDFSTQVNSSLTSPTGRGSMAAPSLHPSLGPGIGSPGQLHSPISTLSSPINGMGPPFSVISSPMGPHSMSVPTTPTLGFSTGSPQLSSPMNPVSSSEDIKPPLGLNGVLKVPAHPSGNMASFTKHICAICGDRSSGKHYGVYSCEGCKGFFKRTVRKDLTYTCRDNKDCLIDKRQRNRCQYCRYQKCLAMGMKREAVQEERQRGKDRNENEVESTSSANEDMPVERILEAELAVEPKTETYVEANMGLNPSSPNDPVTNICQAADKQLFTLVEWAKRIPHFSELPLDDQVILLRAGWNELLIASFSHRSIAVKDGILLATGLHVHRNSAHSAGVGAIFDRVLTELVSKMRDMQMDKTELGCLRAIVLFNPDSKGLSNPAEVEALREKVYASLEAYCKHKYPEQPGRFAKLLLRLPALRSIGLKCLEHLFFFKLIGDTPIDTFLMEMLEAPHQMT
As to the kind of experiment: Cotransfection assay in CV-1 cells, RXR-alpha. To be noted: Table 4; for EC50: read-out: Potency. Format: cell-based.

The target of assay [4] is T4, RXR-β (Mus musculus, UniProt P28704).
T4 construct: expressed in transfected cells; host or cells: CV-1 (monkey kidney)
T4 sequence (P28704 1-520): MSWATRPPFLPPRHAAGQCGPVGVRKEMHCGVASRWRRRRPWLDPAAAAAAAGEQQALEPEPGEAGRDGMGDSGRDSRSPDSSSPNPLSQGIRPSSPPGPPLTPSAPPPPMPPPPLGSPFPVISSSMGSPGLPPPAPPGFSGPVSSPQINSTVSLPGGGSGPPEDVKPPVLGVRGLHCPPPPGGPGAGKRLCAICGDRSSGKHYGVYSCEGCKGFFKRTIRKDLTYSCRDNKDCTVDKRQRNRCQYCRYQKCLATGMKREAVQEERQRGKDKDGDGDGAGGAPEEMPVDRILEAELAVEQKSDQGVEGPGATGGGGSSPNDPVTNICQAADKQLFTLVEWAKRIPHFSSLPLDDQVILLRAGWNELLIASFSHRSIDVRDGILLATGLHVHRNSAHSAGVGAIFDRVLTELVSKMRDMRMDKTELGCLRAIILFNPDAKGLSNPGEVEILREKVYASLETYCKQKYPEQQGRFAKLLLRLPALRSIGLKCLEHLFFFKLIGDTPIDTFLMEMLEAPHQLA
Nature of the assay: Cotransfection assay in CV-1 cells, RXR-beta. Format: cell-based. The conditions noted are these: Table 4; read-out: Potency.

Assay [5] concerns the target T5, RXR-γ (Mus musculus, UniProt P28705).
T5 construct: expressed in transfected cells; host or cells: CV-1 (monkey kidney)
T5 sequence (P28705 1-463): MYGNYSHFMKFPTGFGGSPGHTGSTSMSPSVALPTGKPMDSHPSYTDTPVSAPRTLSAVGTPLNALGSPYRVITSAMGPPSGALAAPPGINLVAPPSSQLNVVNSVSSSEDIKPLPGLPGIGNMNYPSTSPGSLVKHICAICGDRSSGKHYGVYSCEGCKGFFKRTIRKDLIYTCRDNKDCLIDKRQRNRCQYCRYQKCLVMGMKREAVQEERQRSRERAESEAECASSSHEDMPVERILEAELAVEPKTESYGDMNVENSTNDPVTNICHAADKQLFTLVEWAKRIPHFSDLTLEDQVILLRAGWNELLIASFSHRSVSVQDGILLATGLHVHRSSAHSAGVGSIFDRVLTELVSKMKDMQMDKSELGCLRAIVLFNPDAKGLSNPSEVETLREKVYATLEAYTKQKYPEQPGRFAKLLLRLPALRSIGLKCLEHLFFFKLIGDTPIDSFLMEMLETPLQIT
Nature of the assay: Cotransfection assay in CV-1 cells, RXR-gamma. Format: cell-based. The conditions noted are these: Table 4; read-out: Potency.

The target in assay [6] is T6, RAR-α (Homo sapiens, UniProt P10276).
T6 sequence (P10276 1-462): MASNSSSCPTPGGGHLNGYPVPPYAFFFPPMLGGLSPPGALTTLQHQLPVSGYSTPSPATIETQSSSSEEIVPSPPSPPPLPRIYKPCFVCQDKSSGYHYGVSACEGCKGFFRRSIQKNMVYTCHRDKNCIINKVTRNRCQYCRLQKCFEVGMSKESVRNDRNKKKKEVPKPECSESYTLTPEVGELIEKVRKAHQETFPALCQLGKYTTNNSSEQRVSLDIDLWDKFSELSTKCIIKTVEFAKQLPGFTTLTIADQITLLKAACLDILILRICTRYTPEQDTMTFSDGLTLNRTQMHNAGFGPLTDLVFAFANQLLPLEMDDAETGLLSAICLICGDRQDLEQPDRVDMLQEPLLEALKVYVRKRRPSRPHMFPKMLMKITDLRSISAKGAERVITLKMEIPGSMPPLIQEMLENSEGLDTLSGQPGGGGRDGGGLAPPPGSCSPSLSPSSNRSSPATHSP
As to the kind of experiment: Cotransfection assay in CV-1 cells, RAR-alpha. Format: cell-based. Also on record: expressed in transfected cells; host or cells: CV-1 (monkey kidney). The conditions noted are these: for EC50: Table 4.

The subject of assay [7] is Rhino mouse. As to the kind of experiment: Topical application, horn-filled utriculus size in the Rhino mouse. Format: in vivo. The conditions noted are these: 14 days.
The subject of assay [8] is F9 cells. As to the kind of experiment: F9 cell differentiation, induction of alkaline phosphatase. The conditions noted are these: maximal responses similar. Format: cell-based, mouse.
In assay [9] the test system is F9 cells. Nature of the assay: F9 cell differentiation, tissue plasminogen activator activity. Format: cell-based, mouse. The conditions noted are these: concentration of 1 μM.
Assay [10] has as its system F9 cells. As to the kind of experiment: F9 cell differentiation, cellular morphology. Format: cell-based, mouse. An excerpt: Retinoids are known to differentiate mouse teratocarcinoma cells (F9). Differentiation of F9 cells is specifically associated with irreversible changes in morphology and induction of the biochemical marker alkaline phosphatase (ALP) and tissue plasminogen activator (tPA) (Biochem. J. Vol. 274:673–678).

Assay [11] has as its system human primary metastatic melanoma cell line c81–46c. Nature of the assay: In vitro proliferation of human melanoma cell line c81–46c. Format: cell-based.
In assay [12] the target is T6, RAR-α. Nature of the assay: Binding studies, RAR-alpha. Also on record: made in house; host or cells: bacteria (PET-8c vector).
Assay [13] concerns murine melanoma cell line Clone M3. Nature of the assay: In vitro proliferation of murine melanoma cell line Clone M3.

Like-named read-outs stand apart in the source and are kept apart here.

The results in this text go back to patent US7056954B2, “Means for the modulation of processes mediated by retinoid receptors and compounds useful therefor” (The Salk Institute for Biological Studies, priority 1991, dated 2006).

Consider `CC1=C(/C=C/C(C)=C\C=C\C(C)=C\C(=O)O)C(C)(C)CCC1O` (stereo not drawn) [4-hydroxy-9-cis-retinoic acid], for which the EC50 in assay [1] came to 0.16 µM; in assay [2], 0.18 µM; in assay [3], 1.7 µM; in [4], 0.65 µM; in assay [5], 1.7 µM; in [6] (Potency), 0.38 µM. Further, the figures for the Efficacy in assay [1], in [2] and in assay [3] (maximal response relative to retinoic acid at 10^−5 M) were 71%, 81% and 161%, respectively.
Consider `CC1=C(/C=C/C(C)=C/C=C/C(C)=C/C(=O)O)C(C)(C)CCC1` [all-trans-retinoic acid], for which the “Pilosebaceous structure size (% red′n)” value in assay [7] (0.01% topical) was “(−75%)”; in [7] (0.1% topical) it was “(−78%)”. Further, the Pilosebaceous structure size in assay [7] (0.1% topical, vehicle control 178 μm) amounted to 44 μm. In assay [8], the “times more potent than 9-cis-retinoic acid in inducing ALP” value worked out at 40 times. The “increased cellular activities of tPA” value in [9] worked out at 0.80±0.08. The “differentiation of F9 cells, irreversible changes in cellular morphology” value in [10] is recorded as “induced differentiation of F9 cells into partial endoderm-like cells”.
On to `CC1=C(/C=C/C(=C\C=C\C(C)=C\C(=O)O)c2ccccc2)C(C)(C)CCC1` [9-phenyl-9-cis-retinoic acid], for which the EC50 in [1] (Table 4, read-out: Potency) is 0.88 µM; in assay [2] (Table 4, read-out: Potency) it was 0.25 µM; in assay [3], 0.21 µM; in [4] it was 0.044 µM; in assay [5], 0.29 µM; in assay [6] (read-out: Potency) it was more than 10 µM.
For `CC1=C(/C=C/C(C)=C\C=C\C(C)=C\C(=O)O)C(C)(C)CCC1=O` [4-keto-9-cis-retinoic acid], the results for the EC50 in assay [3], in assay [4] and in [5] were 0.52 µM, 1.3 µM and 1.1 µM, respectively.
Take `CC1=C(/C=C/C(C)=C\C=C\C(C)=C\C(=O)O)C(C)(C)CCC1` [9-cis-retinoic acid]: the “% Growth inhibition” value was −28% in assay [11] (Conc added 0.01 μM), −45% in [11] (Conc added 1 μM), −49% in [13] (Conc added 0.01 μM) and −85% in [13] (Conc added 1 μM). Further, the “differentiation of F9 cells, irreversible changes in cellular morphology” value in assay [10] is recorded as “induced differentiation of F9 cells into partial endoderm-like cells”. For the same compound, the “binding to RAR-alpha” value in [12] is “high affinity ligand”. The “potency as an activator of RAR-alpha compared with all-trans-retinoic acid” value in assay [6] (FIG. 3C) is “equipotent”.
